Experimental data as given in US8278359B2, “Compositions containing amines and use thereof to treat acne or reduce the appearance of oil or pores on the skin” (Johnson & Johnson Consumer Companies, Inc., priority 2005, dated 2012).

Assays:
[1] = test system: TNF (tissue necrosis factor-alpha); test: PHA-stimulated peripheral blood lymphocyte cytokine release: TNF; assay type: cell-based; details: Homo sapiens, 48 h, read-out: TNF % inh.
Source text: (§1) The ability of various amines to affect the inflammatory responses was illustrated by its ability to reduce the production of cytokines by human lymphocytes stimulated with the T-cell receptor (TCR) activating agent phytohaemagglutinin (PHA) in the following assay.
(§2) Human leukocytes were collected from a healthy adult […] via leukopheresis, and adjusted to a density Of 1×10^6 cells/mL in serum free lymphocyte growth medium (ExVivo-15, Biowhittaker, Walkersville, Md.). PBLs were stimulated with 10 μg/mL PHA in the presence or absence of test samples following published methods (Hamamoto Y., et al. Exp Dermatol 2:231-235, 1993). The following compounds were evaluated N,N,N′,N′-Tetrakis(2-hydroxypropyl)ethylenediamine (THPED, available from BASF under the tradename “Quadrol” or “Neutrol”), N,N,N,N-Tetramethylethylenediamine (TEMED, available from Pfaltz & Bauer Chemicals (Waterbury, Conn.)), and Diethylenetriamine (available from Sigma-Aldrich) Following a 48 hour incubation at 37° C. with 5% CO2, the supernatant was removed and evaluated for cytokine content using commercially available multiplex cytokine detection kit.

tyrosinase = test: Tyrosinase protein levels in B16 cells (Western blot, normalized to β-Actin); assay type: cell-based, murine; details: pH 7.2, 48 hours, PBS treated control = 1
Experimental: THPED was also tested for its ability to induce tyrosinase protein levels in B16 cells. B16 cells were treated with THPED at different concentrations at pH 7.2 for 48 hours and cells were then lysed in 250 μl of PBS containing 1% Triton X-100. B16 cell lysates containing 3.7 μg of protein (for tyrosinase protein analysis) and 1.2 μg of protein (for β-Actin protein analysis) were electrophoresed on 4-20% Tris-Glycine SDS PAGE minigels (Invitrogen, Carlsbad, Calif.), transferred onto PVDF membrane (Bio Rad, Hercules, Calif.), and probed with antibodies for Tyrosinase (1:200 in PBS+0.2% Tween 20+5% BSA, obtained from Santa Cruz Biotechnology, Inc., Santa Cruz, Calif.) and β-Actin (1:2000 in PBS+0.2% Tween 20+5% BSA, obtained from Sigma, St. Louis, Mo.). Protein expression of tyrosinase and β-Actin were analyzed using ECL reagent and Hyperfilm ECL obtained from Amersham (Piscataway, N.J.). The film was developed using a Konica SRX-101A Processor (East Orange, N.J.).
Tyrosinase protein level in untreated B16 cells was normalized to 1.

IFN (interferon-gamma) = test: PHA-stimulated peripheral blood lymphocyte cytokine release: IFN; assay type: cell-based; details: Homo sapiens, 48 h, read-out: IFN % inh.
Source text: as §1, §2

Human keratinocytes = test: Electric Cell-substrate Impedance Sensing (ECIS) capacitance, keratinocyte contraction; assay type: cell-based; details: capacitance integrated over 5 hrs, 40,000 Hz, pH 7.2-7.3
Source text: Electrical changes due to the presence of a cell layer can be used to calculate cell morphological parameters including the barrier function of the cell layer (the spacing between the ventral side of the cell and the substratum) and the cell membrane capacitance (Giaever and Keese, Proceedings of National Academy of Sciences 88, 7896, 1991).
Current flowing between a reference electrode, onto which cells or cell cultures may be attached, and a larger counter electrode using normal culture medium as the electrolyte can be used to detect changes in cell morphological parameters. In the absence of cells on the electrode, the current flows unrestrained from the surface of the electrodes. In the presence of cells attached and spread upon the electrode, the current must now flow in the spaces under and between the cells, as the cell membrane act as insulators.
The electrical changes of living, viable cells can be sampled rapidly, in real time, over an extended period of time, and the measurements are the measurement is non-invasive. An example of this technology is the Electric Cell-substrate Impedance Sensing System (ECIS) available from Applied Biophysics (Troy, N.Y.). […]
Human keratinocytes and Epilife culture media (Cascade Biologics, Portland, Oreg.) were cultured at 37° C. in a humidified atmospheres of 5% CO2/95% air. […] Capacitance changes (in nanofarads, nF) of keratinocytes were measured using a Electric Cell-substrate Impedance Sensing System (ECIS) Model 1600R (Applied Biophysics, Troy, N.Y.) using the method of Wegener and co-workers (Wegener J, Keese C R, Giaever I, Exp Cell Res. 259:158-166, 2000) at a frequency of 40,000 Hz. Capacitance readings are inversely related to the contact area of a cell onto the ECIS electrode array, the greater the cell area contacting the electrode the smaller the capacitance readings (Wegener J, Keese C R, Giaever I, Exp Cell Res. 259:158-166, 2000). Conversely as a cell contracts or shrinks, the contact area of the cell onto the ECIS electrode array decreases, resulting in an increase in the capacitance readings. […]

[2] = test system: GM-CSF (granulocyte macrophage stimulating factor); test: PHA-stimulated peripheral blood lymphocyte cytokine release: GM-CSF; assay type: cell-based; details: Homo sapiens, 48 h, read-out: GMCSF % inh.
Source text: as §1, §2

## CC(O)CN(CCN(CC(C)O)CC(C)O)CC(C)O (stereo not drawn) [THPED, N,N,N′,N′-Tetrakis(2-hydroxypropyl)ethylenediamine]
[1]
  inhibition at 10 µg/mL: 13.3%
  inhibition at 100 µg/mL: 46.1%
tyrosinase; 0.01%
  Relative increase in tyrosinase protein: 3 fold
tyrosinase; 0.025%
  Relative increase in tyrosinase protein: 25 fold
tyrosinase; 0.05%
  Relative increase in tyrosinase protein: 36 fold
IFN (interferon-gamma)
  inhibition at 10 µg/mL: 18.1%
  inhibition at 100 µg/mL: 37.9%
Human keratinocytes; 0.01% V/V
  Electrical Capacitance Contraction of Human Keratinocytes (AUC, Mean ± Std Dev): 29.2 ± 3.2
Human keratinocytes; 0.05% V/V
  Electrical Capacitance Contraction of Human Keratinocytes (AUC, Mean ± Std Dev): 35.1 ± 5.3
Human keratinocytes; 0.1% V/V
  Electrical Capacitance Contraction of Human Keratinocytes (AUC, Mean ± Std Dev): 44.5 ± 9.1
[2]
  inhibition at 10 µg/mL: 10.3%
  inhibition at 100 µg/mL: 15.8%
